The source of these data is patent publication US6613772B1, “Substituted 2-aryl-4-amino-chinazolines, method for the production and use thereof as medicaments” (Aventis Pharma Deutschland GmbH, priority 1997, dated 2003).

SMILES strings stand for the structures.

The term melting point denotes the temperature of the solid-liquid transition.

`COc1cc2nc(-c3ccc(Cl)cc3)nc(NCCN(C(C)C)C(C)C)c2cc1OC.Cl.Cl` came in with a melting point of 246 °C.

Molecule `COc1cc2nc(-c3ccc(Cl)cc3)nc(N3CCN(Cc4ccccc4)CC3)c2cc1OC.Cl.Cl` returned a melting point of 225 °C.

On to `COc1cccc(CNc2nc(-c3ccc(C)cc3)nc3cc(OC)c(OC)cc23)c1.Cl`, for which the melting point worked out at 278 °C.

The molecule `COc1cccc(CCNc2nc(-c3ccc(C)cc3)nc3cc(OC)c(OC)cc23)c1.Cl` returned a melting point of 256 °C.

Turning to `COc1cc2c(NCCO)nc(-c3ccc(Cl)cc3)nc2c(OC)c1OC.Cl`, the melting point worked out at 202 °C.

Turning to `COc1ccccc1N1CCN(c2nc(-c3ccc(Cl)cc3)nc3c(OC)c(OC)c(OC)cc23)CC1` [Example 10, 2-(4-Chlorophenyl)-4-(4-(2-methoxyphenyl)piperazino)-6,7,8-trimethoxyquinazoline], the melting point was 157 °C.

Turning to `COc1cc2nc(-c3ccc(Cl)cc3)nc(NCCCn3ccnc3)c2cc1OC` [Example 21, 2-(4-Chlorophenyl)-4-(3-(1-imidazolyl)propylamino)-6,7-dimethoxyquinazoline], the melting point came to 242 °C.

Molecule `COc1cc2nc(-c3ccc(Cl)cc3)nc(NC3CCN(Cc4ccccc4)CC3)c2cc1OC` [Example 22, 2-(4-Chlorophenyl)-4-((1-benzylpiperidin-4-yl)amino)-6,7-dimethoxyquinazoline] showed a melting point of 252 °C.

`COc1cc2nc(-c3ccc(Cl)cc3)nc(NC3CC(C)(C)NC(C)(C)C3)c2cc1OC` [Example 26, 2-(4-Chlorophenyl)-4-((2,2,6,6-tetramethylpiperidin-4-yl)amino)-6,7-dimethoxyquinazoline] yielded a melting point of 231 °C.

Molecule `COc1cc2nc(-c3ccc(Cl)cc3)nc(NCCCN3CCCC3=O)c2cc1OC` [Example 27, 2-(4-Chlorophenyl)-4-(3-(2-oxopyrrolidino)propylamino)-6,7-dimethoxyquinazoline] yielded a melting point of 210 °C.

In the case of `COc1cc2nc(-c3ccc(Cl)cc3)nc(N3CCN(CC(=O)N4CCOCC4)CC3)c2cc1OC` [Example 30, 2-(4-Chlorophenyl)-4-(4-(morpholinocarbonylmethyl)piperazino)-6,7-dimethoxyquinazoline], the melting point was determined as 198 °C.

For the molecule `COc1cc2nc(-c3ccc(Cl)cc3)nc(NCC(=O)O)c2cc1OC` [Example 34, N-(2-(4-Chlorophenyl)-6,7-dimethoxyquinazolin-4-yl)aminoacetic Acid], the melting point was 270 °C (dec.).

`COc1cc2nc(-c3ccc(C)cc3)nc(NCCN(C(C)C)C(C)C)c2cc1OC` [Example 40, 2-(4-Methylphenyl)-4-(2-diisopropylaminoethylamino)-6,7-dimethoxyquinazoline] returned a melting point of 81 °C.

In the case of `COc1cc2nc(-c3ccc(Cl)cc3)nc(N(C)CCO)c2cc1OC` [Example 41, 2-(4-Chlorophenyl)-4-(N-(2-hydroxyethyl)-N-methylamino)-6,7-dimethoxyquinazoline], the melting point was 129 °C.

The molecule `COc1cc2nc(-c3ccc(C(F)(F)F)cc3)nc(N3CCN(CCO)CC3)c2cc1OC` [Example 43, 2-(4-Trifluoromethylphenyl)-4-(4-(2-hydroxyethyl)piperazino)-6,7-dimethoxyquinazoline] showed a melting point of 176 °C.

As for `COc1cc2nc(-c3ccc(C(F)(F)F)cc3)nc(N3CCN(C)CC3)c2cc1OC` [Example 45, 2-(4-Trifluoromethylphenyl)-4-(4-methylpiperazino)-6,7-dimethoxyquinazoline], the melting point was found to be 139 °C.

Regarding `COc1cc2nc(-c3ccc(Cl)cc3)nc(NCCc3ccc(Oc4ccccc4)cc3)c2cc1OC` [Example 46, 2-(4-Chlorophenyl)-4-(2-(4-phenoxyphenyl)ethylamino)-6,7-dimethoxyquinazoline], the melting point is 216 °C.

On to `COC(=O)CNc1nc(-c2ccc(Cl)cc2)nc2cc(OC)c(OC)cc12` [Example 47, 2-(4-Chlorophenyl)-4-((methoxycarbonylmethyl)amino)-6,7-dimethoxyquinazoline], for which the melting point came to 196 °C.

As to `COc1cc2nc(-c3ccc(Cl)cc3)nc(N3CCOCC3)c2cc1OC` [Example 48, 2-(4-Chlorophenyl)-4-morpholino-6,7-dimethoxyquinazoline], the melting point was 178 °C.

`COc1cc2nc(-c3ccc(C)cc3)nc(N3CCOCC3)c2cc1OC` [Example 49, 2-(4-Methylphenyl)-4-morpholino-6,7-dimethoxyquinazoline] returned a melting point of 200 °C.

On to `COc1cc2nc(-c3ccc(C(F)(F)F)cc3)nc(N3CCOCC3)c2cc1OC` [Example 50, 2-(4-Trifluoromethylphenyl)-4-morpholino-6,7-dimethoxyquinazoline], for which the melting point worked out at 207 °C.

`COc1cc2nc(-c3ccc(C)cc3)nc(NCc3ccncc3)c2cc1OC` [Example 51, 2-(4-Methylphenyl)-4-((4-pyridylmethyl)amino)-6,7-dimethoxyquinazoline] yielded a melting point of 208 °C.

For the molecule `COc1cc2nc(-c3ccc(C)cc3)nc(NCc3ccccn3)c2cc1OC` [Example 52, 2-(4-Methylphenyl)-4-((2-pyridylmethyl)amino)-6,7-dimethoxyquinazoline], the melting point worked out at 196 °C.

For `COc1cc2nc(-c3ccc(C)cc3)nc(NCCc3ccccn3)c2cc1OC` [Example 53, 2-(4-Methylphenyl)-4-((2-(2-pyridyl)ethyl)amino)-6,7-dimethoxyquinazoline], the melting point was found to be 204 °C.

With `COc1cc2c(NCc3cccnc3)nc(-c3ccc(Cl)cc3)nc2c(OC)c1OC` [Example 54, 2-(4-Chlorophenyl)-4-((3-pyridylmethyl)amino)-6,7,8-trimethoxyquinazoline], the melting point was found to be 262 °C.

`COc1cc2c(N3CCOCC3)nc(-c3ccc(Cl)cc3)nc2c(OC)c1OC` [Example 55, 2-(4-Chlorophenyl)-4-morpholino-6,7,8-trimethoxyquinazoline] came in with a melting point of 153 °C.

`COc1cc2c(N3CCNCC3)nc(-c3ccc(Cl)cc3)nc2c(OC)c1OC` [Example 56, 2-(4-Chlorophenyl)-4-piperazino-6,7,8-trimethoxyquinazoline] had a melting point of 156 °C.

On to `COc1cc2c(NCCO)nc(-c3ccc(Cl)cc3)nc2c(OC)c1OC` [Example 57, 2-(4-Chlorophenyl)-4-(2-hydroxyethylamino)-6,7,8-trimethoxyquinazoline], for which the melting point is 202 °C.

On to `COCCNc1nc(-c2ccc(Cl)cc2)nc2c(OC)c(OC)c(OC)cc12` [Example 58, 2-(4-Chlorophenyl)-4-(2-methoxyethylamino)-6,7,8-trimethoxyquinazoline], for which the melting point turned out to be 165 °C.

With `COc1cc2c(NCCCn3ccnc3)nc(-c3ccc(Cl)cc3)nc2c(OC)c1OC` [Example 59, 2-(4-Chlorophenyl)-4-(3-(1-imidazolyl)propylamino)-6,7,8-trimethoxyquinazoline], the melting point was 245 °C.

Molecule `COc1cc2c(N3CCN(C)CC3)nc(-c3cc(C(F)(F)F)cc(C(F)(F)F)c3)nc2c(OC)c1OC` [Example 62, 2-(3,5-Bistrifluoromethylphenyl)-4-(4-methylpiperazino)-6,7,8-trimethoxyquinazoline] showed a melting point of 176 °C.

For `COc1cc2c(NCCN(C(C)C)C(C)C)nc(-c3cc(C(F)(F)F)cc(C(F)(F)F)c3)nc2c(OC)c1OC` [Example 63, 2-(3,5-Bistrifluoromethylphenyl)-4-(2-diisopropylaminoethylamino)-6,7,8-trimethoxyquinazoline], the melting point was 128 °C.

Regarding `COc1cc2c(N3CCOCC3)nc(-c3cc(C(F)(F)F)cc(C(F)(F)F)c3)nc2c(OC)c1OC` [Example 64, 2-(3,5-Bistrifluoromethylphenyl)-4-morpholino-6,7,8-trimethoxyquinazoline], the melting point came to 170 °C.

Regarding `COc1cc2c(NCc3cccnc3)nc(-c3cc(C(F)(F)F)cc(C(F)(F)F)c3)nc2c(OC)c1OC` [Example 65, 2-(3,5-Bistrifluoromethylphenyl)-4-((3-pyridylmethyl)amino)-6,7,8-trimethoxyquinazoline], the melting point turned out to be 229 °C.

Molecule `COc1cc2c(N3CCSCC3)nc(-c3ccc(Cl)cc3)nc2c(OC)c1OC` [Example 66, 2-(4-Chlorophenyl)-4-thiomorpholino-6,7,8-trimethoxyquinazoline] registered a melting point of 174 °C.

`COc1cc2c(N3CC[S+]([O-])CC3)nc(-c3ccc(Cl)cc3)nc2c(OC)c1OC` [Example 68, 2-(4-Chlorophenyl)-4-(1-oxothiomorpholino)-6,7,8-trimethoxyquinazoline] came in with a melting point of 198 °C.

The molecule `COc1cc2c(N3CCS(=O)(=O)CC3)nc(-c3ccc(Cl)cc3)nc2c(OC)c1OC` [Example 69, 2-(4-Chlorophenyl)-4-(1,1-dioxothiomorpholino)-6,7,8-trimethoxyquinazoline] had a melting point of 241 °C.

Regarding `COc1cc2nc(-c3ccc(C)cc3)nc(NCc3cccc([N+](=O)[O-])c3)c2cc1OC` [Example 72, 2-(4-Methylphenyl)-4-((3-nitrophenylmethyl)amino)-6,7-dimethoxyquinazoline], the melting point was 250 °C.

For `COc1ccccc1CCNc1nc(-c2ccc(C)cc2)nc2cc(OC)c(OC)cc12` [Example 73, 2-(4-Methylphenyl)-4-(2-(2-methoxyphenyl)ethylamino)-6,7-dimethoxyquinazoline], the melting point came to 205 °C.

With `COc1cc2nc(-c3ccc(Cl)cc3)nc(N3CCSCC3)c2cc1OC` [Example 74, 2-(4-Chlorophenyl)-4-thiomorpholino-6,7-dimethoxyquinazoline], the melting point worked out at 214 °C.

Regarding `COc1cc2nc(-c3ccc(C)cc3)nc(N3CCSCC3)c2cc1OC` [Example 75, 2-(4-Methylphenyl)-4-thiomorpholino-6,7-dimethoxyquinazoline], the melting point stood at 213 °C.

In the case of `COc1cc2nc(-c3ccc(Cl)cc3)nc(N3CC[S+]([O-])CC3)c2cc1OC` [Example 76, 2-(4-Chlorophenyl)-4-(1-oxothiomorpholino)-6,7-dimethoxyquinazoline], the melting point stood at 226 °C.

For the molecule `COc1cc2nc(-c3ccc(C)cc3)nc(N3CC[S+]([O-])CC3)c2cc1OC` [Example 77, 2-(4-Methylphenyl)-4-(1-oxothiomorpholino)-6,7-dimethoxyquinazoline], the melting point amounted to 216 °C.
